Measurements from patent US5214067A, “Fungicidal compositions and method” (Merck & Co., Inc., priority 1990, dated 1993).
≈ marks a conversion by molar mass, not a printed value.

Columns and labels:
[1] = test system: Candida albicans MY 1055; assay: Minimum inhibitory concentration (broth dilution) against Candida albicans MY 1055; type: cell-based; details: MY1055, C. albicans MY 1055, YNB/G, 37° C., 250 rpm, 17 hr
Method: 11-(3-hydroxymethyl-4-oxo-2oxetanyl)-7-methyl-2,4-undecadienoic acid (β-lactone compound), was solubilized in 100 percent dimethylsulfoxide (DMSO). Twofold dilutions were made with DMSO to obtain final drug concentrations in the broth dilution assay tubes ranging from […].
The Candida albicans, MY 1055 yeast culture, maintained in yeast nitrogen base/glucose (1/2 percent), YNB/G, was transferred to fresh medium and incubated 7 hours at 37° with shaking at 250 rpm. After incubation, each culture was diluted to A600 =0.0004 U/ml which was previously determined to be equal to 3000 cfu/ml (colony forming units per milliliter).
1 milliliter of YNB/G inoculated with yeast culture was added to sterile test tubes. The tubes were incubated at 250 rpm, 37° C. for 17 hr. The minimum inhibitory concentration (MIC) was recorded as the lowest concentration of drug […].
In a similar manner, the pyranyl ester was solubilized in dimethyl sulfoxide and dilution assay tubes from […] prepared. […] The MIC against C. C. albicans MY 1055 was determined to be 2 μg/ml.

[2] = test system: C. albicans; assay: Synergistic and fungicidal effect: viable cell count (CFU/ml) of exponential phase C. albicans culture over time, drugs alone and in combination; type: cell-based, Candida albicans; details: β-lactone 3.1 μg/ml, pyranyl glycine ester 2 μg/ml, alone or together
Method: Synergistic and fungicidal effects were determined by treating exponential phase C. albicans culture with β-Lactone and pyranyl glycine ester at respective MIC level alone and in combination. Exponential phase cultures were prepared by diluting an overnight culture 1:50 or 1:1000 YNB/G. After incubating the diluted cells 7 or 17 hrs. at 37° C., the exponential phase cells were diluted in YNB/G to A600 =0.004u/ml to obtain 3000 cfu/ml.
10 microliters (μl) of β-lactone compound or pyranyl glycine ester compound prepared in DMSO was added to 1 ml of diluted exponential phase cells. The tubes were incubated at 37° C. at 250 rpm for about 24 hours. Periodically, aliquots were diluted in 0.9% saline and plated on Sabouraud dextrose agar plates to determine the number of cfu/ml.

[3] = time 2 hours, no drug 4.45 × 10^3
[4] = time 4.5 hours, no drug 1.75 × 10^4
[5] = time 7.5 hours, no drug 1.10 × 10^5
[6] = time 16.0 hours, no drug 5.35 × 10^6
[7] = time 20.5 hours, no drug 5.30 × 10^7
[8] = time 24.0 hours, no drug 7.65 × 10^7

Compound	MIC [1]	Fungal Growth (CFU/ML) ([2]; time 0 hours (start), 37° C.)	Fungal Growth (CFU/ML) [2, 3]	Fungal Growth (CFU/ML) [2, 4]	Fungal Growth (CFU/ML) [2, 5]	Fungal Growth (CFU/ML) [2, 6]	Fungal Growth (CFU/ML) [2, 7]	Fungal Growth (CFU/ML) [2, 8]
CCCC=CC=CC=C(C)C1OCC(C)C(OC)C1OC(=O)CN (stereo not shown) [Pyranyl Glycine Ester Compound, (2,3,4,5)-tetrahydro-4-methoxy-5-methyl-2-(1-methyl-1,3,5-nonatrienyl)-2-pyran-3-yl-glycine]	2 µg/mL (≈ 5.93 µM)	2.70 × 10^3 CFU/ML	6.05 × 10^3 CFU/ML	9.60 × 10^3 CFU/ML	1.40 × 10^4 CFU/ML	1.00 × 10^5 CFU/ML	1.02 × 10^6 CFU/ML	1.37 × 10^6 CFU/ML
CC(=CC(=O)O)C=C(C)CC(C)CCCCC1OC(=O)C1CO (stereo not drawn) [β-Lactone Compound]	3.1 µg/mL (≈ 9.56 µM)	2.70 × 10^3 CFU/ML	5.95 × 10^3 CFU/ML	4.10 × 10^3 CFU/ML	4.55 × 10^3 CFU/ML	1.70 × 10^3 CFU/ML	1.50 × 10^3 CFU/ML	1.50 × 10^3 CFU/ML
